From PubChem BioAssay (NCI)
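Values below derive from 48-hour exposures of cells grown in 96-well plates, with endpoints linearly interpolated between the two concentrations bracketing the appropriate inhibition level. GI50 marks 50% less growth. TGI is the concentration that stops growth completely.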

How the values were obtained:
Assay in all cases: DTP human tumour cell line panel, 48 h
NCI/ADR-RES ovarian = test system: NCI/ADR-RES ovarian
U251 CNS = test system: U251 CNS
LOX IMVI melanoma = test system: LOX IMVI melanoma
HT29 colon = test system: HT29 colon
SN12C renal = test system: SN12C renal
UO-31 renal = test system: UO-31 renal
SK-MEL-5 melanoma = test system: SK-MEL-5 melanoma
UACC-62 melanoma = test system: UACC-62 melanoma
SR leukemia = test system: SR leukemia
TK-10 renal = test system: TK-10 renal

| Structure (SMILES) | TGI (NCI/ADR-RES ovarian) [µM] | TGI (U251 CNS) [µM] | TGI (LOX IMVI melanoma) [µM] | TGI (HT29 colon) [µM] | GI50 (SN12C renal) [µM] | TGI (SN12C renal) [µM] | TGI (UO-31 renal) [µM] | TGI (SK-MEL-5 melanoma) [µM] | GI50 (UACC-62 melanoma) [µM] | TGI (UACC-62 melanoma) [µM] | TGI (SR leukemia) [µM] | TGI (TK-10 renal) [µM] | GI50 (NCI/ADR-RES ovarian) [µM] | GI50 (U251 CNS) [µM] | GI50 (LOX IMVI melanoma) [µM] | GI50 (HT29 colon) [µM] | GI50 (UO-31 renal) [µM] | GI50 (SK-MEL-5 melanoma) [µM] | GI50 (SR leukemia) [µM] | GI50 (TK-10 renal) [µM] |
| --- | --- | --- | --- | --- | --- | --- | --- | --- | --- | --- | --- | --- | --- | --- | --- | --- | --- | --- | --- | --- |
| C[C@]12CC[C@@H]3c4cc(I)c(O)cc4CC[C@H]3[C@@H]1CC[C@@H]2O | > 78.2 | 16.8 | 25.8 | 34.3 | 6.66 | 22.2 | 17.6 | 12.2 | 3.63 | 14.5 | 13.7 | 27.6 | – | – | – | – | – | – | – | – |
| COC(=O)c1cc(C#N)[nH]c1-c1cc(Br)cs1 | 39.3 | 32.1 | 25.5 | 31.7 | – | 32.3 | 29.5 | 21.2 | – | 38.4 | > 66.3 | 57.1 | – | – | – | – | – | – | – | – |
| COc1ccc(CN2C3CC2CN(c2ccc(-c4cc(OCC(C)(C)O)cn5ncc(C#N)c45)cn2)C3)cn1 | > 100 | > 100 | > 100 | > 100 | 2.95 | > 100 | > 100 | > 100 | > 100 | > 100 | > 100 | > 100 | 28.7 | 4.55 | 15.1 | 8.09 | 7.32 | > 100 | 4.45 | 10.5 |
| Oc1[nH]c2ccccc2c1N=NC(=S)Nc1ccc(Cl)cc1 | 38.8 | > 100 | > 100 | > 100 | – | > 100 | > 100 | 63.4 | – | > 100 | > 100 | 94.1 | – | – | – | – | – | – | – | – |
| CN(C)CC1CCC(CN(C)C)C1=O (configuration not stated) | 63.8 | 50.2 | 14.4 | 16.2 | – | 13.4 | 14 | 15.9 | – | 27.2 | > 100 | 28.2 | – | – | – | – | – | – | – | – |
| COc1ccc(N(C(=O)Nc2ccc(Cl)c(Cl)c2)C2c3cccn3C(=O)N2c2ccc(Cl)c(Cl)c2)cc1 (configuration not stated) | > 100 | > 100 | > 100 | > 100 | – | > 100 | > 100 | > 100 | – | > 100 | > 100 | > 100 | – | – | – | – | – | – | – | – |
| O=C1NCN(c2ccccc2)C12CCN(CCCN1CCN(CCOC(c3ccc(F)cc3)c3ccc(F)cc3)CC1)CC2 | 26.7 | 3.45 | 3.39 | 3.97 | – | 4.14 | 3.25 | 3.09 | – | 3.75 | 6.67 | 3.2 | – | – | – | – | – | – | – | – |
| C#CCN(Cc1ccc2nc(OC)c(OC)nc2c1)c1cc(OC)c(OC)c(OC)c1 | 53.7 | > 80.2 | > 48.9 | 72 | – | 57.2 | > 89.1 | 23.1 | – | > 97.2 | > 61.7 | > 100 | – | – | – | – | – | – | – | – |
| COC(=O)[C@H](Cc1ccccc1)NC(=O)CCCCCCC(=O)NO | > 100 | 87.5 | 32.4 | > 100 | – | > 100 | > 100 | 28.6 | – | 46.8 | > 100 | 72.5 | – | – | – | – | – | – | – | – |
| N#Cc1nc(C2CCC2)oc1N | > 100 | > 100 | > 100 | > 100 | – | > 100 | > 100 | > 100 | – | > 100 | > 100 | > 100 | – | – | – | – | – | – | – | – |
| CC(C)OC(=O)OCSc1ccccc1N=Cc1cccc([N+](=O)[O-])c1 | > 10 | > 10 | > 10 | > 10 | – | > 10 | > 10 | > 10 | – | > 10 | > 10 | > 10 | – | – | – | – | – | – | – | – |
| CCOC(=O)C1CCC(=O)N1C(=O)c1ccccc1 (configuration not stated) | > 100 | > 100 | > 100 | > 100 | – | > 100 | > 100 | > 100 | – | > 100 | > 100 | > 100 | – | – | – | – | – | – | – | – |
| CSc1n[nH]c(N)c1C(=O)Nc1ccccc1 | > 100 | > 100 | > 100 | > 100 | – | > 100 | > 100 | > 100 | – | > 100 | > 100 | > 100 | – | – | – | – | – | – | – | – |
| O=[N+]([O-])c1ccc2c(c1)C1=NN(c3ccccc3)C(c3ccccc3Br)C1CCC2 (configuration not stated) | 45.6 | > 50 | > 50 | > 50 | – | > 50 | > 50 | > 50 | – | 34.4 | > 50 | > 50 | – | – | – | – | – | – | – | – |
| N#Cc1c(-c2ccccc2)cc(-c2ccc(Cl)cc2)[nH]c1=S | > 100 | 48.5 | > 100 | > 100 | – | > 100 | > 100 | 39 | – | 92.1 | > 100 | > 100 | – | – | – | – | – | – | – | – |
| O=c1cc(-c2cc(O)c(O)c(-c3c(O)cc4oc(-c5ccc(O)c(O)c5)cc(=O)c4c3O)c2)oc2cc(O)cc(O)c12 | > 25 | > 25 | > 25 | > 25 | – | > 25 | > 25 | > 25 | – | > 25 | > 25 | > 25 | – | – | – | – | – | – | – | – |
| [O-]/[N+](=C\c1ccccc1OC(=S)S)c1ccc(Cl)cc1 | > 100 | > 100 | 38.8 | > 100 | – | 97.8 | 76.6 | > 100 | – | > 100 | > 100 | > 100 | – | – | – | – | – | – | – | – |
| NC(=O)N/N=C1\CC2C3CC4C2C4C13 (configuration not stated) | > 100 | > 100 | > 100 | > 100 | – | > 100 | > 100 | > 100 | – | > 100 | > 100 | > 100 | – | – | – | – | – | – | – | – |
| COc1cc(/C=C/C=C2\CC/C(=C\C=C\c3ccc(O)c(OC)c3)C2=O)ccc1O | > 100 | > 100 | > 100 | > 100 | – | > 100 | > 100 | > 100 | – | > 100 | 17.9 | > 100 | – | – | – | – | – | – | – | – |
| CCOC(=O)/C=C(\C(=O)OCC)n1ccc(=O)n(Cc2cn(COCCOC(C)=O)nn2)c1=O | 52.8 | 36.7 | 34.9 | 30.8 | – | 41.8 | 34.1 | 47.1 | – | 38.6 | 52.9 | 29.2 | – | – | – | – | – | – | – | – |
